Laboratory results: patent US20070135383A1, “Phospholipase inhibitors, including multi-valent phospholipase inhibitors, and use thereof, including as lumen-localized phospholipase inhibitors” (priority 2005, published 2007)

Columns and labels:
[1] = In-vitro Caco-2 permeability study (Example 1B-2); details: human
mouse PLA2 IB enzyme = mouse PLA2 IB enzyme (Mus musculus, UniProt Q9Z0Y2); details: versus the mouse PLA2 IB enzyme; cited from earlier work
[2] = molecular target: T1, mouse group 1B PLA2 (mps PLA2) (Mus musculus, UniProt Q9Z0Y2); assay: Fluorimetric PPyrPM assay for group 1B PLA2 inhibition (Example 12); format: biochemical; details: mouse pancreas secreted PLA2; read-out: ILYPSA IC50 mps PLA2
T1 construct: made in house; host or cells: E. coli

[3] = molecular target: T2, human group 1B PLA2 (hps PLA2) (Homo sapiens, UniProt P04054); assay: as above; format: biochemical; details: human pancreas secreted PLA2; read-out: ILYPSA IC50 hps PLA2
T2 construct: made in house; host or cells: E. coli

[4] = molecular target: T3, porcine group 1B PLA2 (pps PLA2) (Sus scrofa, UniProt P00592); assay: as above; format: biochemical; details: porcine pancreas secreted PLA2; read-out: ILYPSA IC50 pps PLA2
T3 construct: purchased
In short: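 Porcine group 1B PLA2 hydrolysis of 4.2 uM PPyrPM vesicle solution (pre-mixing concentration) in 50 mM Tris-HCl pH 8.0, 50 mM KCl, 1 mM CaCl2 with BSA; inhibitors in 8-point threefold series from 15 uM. After 3 min at 37 °C, fluorescence read at ex 342/em 395 nm; duplicate IC50 by four-parameter fit.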

T2 sequence (P04054 23-148): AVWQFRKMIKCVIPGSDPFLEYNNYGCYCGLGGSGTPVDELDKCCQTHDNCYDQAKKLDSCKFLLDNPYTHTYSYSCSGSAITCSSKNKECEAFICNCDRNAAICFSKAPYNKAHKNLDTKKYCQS
T3 sequence (P00592 23-146): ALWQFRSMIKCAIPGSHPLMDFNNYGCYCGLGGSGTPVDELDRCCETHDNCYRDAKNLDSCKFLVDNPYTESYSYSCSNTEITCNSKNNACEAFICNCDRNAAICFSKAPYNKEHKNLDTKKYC
T1 sequence (Q9Z0Y2 23-146): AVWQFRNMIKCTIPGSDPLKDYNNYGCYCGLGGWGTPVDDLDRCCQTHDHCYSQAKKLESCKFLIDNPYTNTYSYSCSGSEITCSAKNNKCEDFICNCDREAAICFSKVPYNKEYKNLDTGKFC
Chain of mouse PLA2 IB enzyme (Q9Z0Y2 23-146): as above

Structure (SMILES): Cc1c(C(=O)C(N)=O)c2c(OCC(=O)O)cccc2n1Cc1ccccc1-c1ccccc1 [ILY-4001, 2-(3-(2-amino-2-oxoacetyl)-1-(biphenyl-2-ylmethyl)-2-methyl-1H-indol-4-yloxy)acetic acid]
- Papp A→B at 6 hr, 50 ug/ml [1]: ~0.166 ×10⁻⁶ cm/s
- IC50 (mouse PLA2 IB enzyme): 150 nM

Structure (SMILES): Cc1c(C(=O)C(N)=O)c2c(OCC(=O)O)cccc2n1CCCCCCCCSCCCCCCCCSCCCCCCCCn1c(C)c(C(=O)C(N)=O)c2c(OCC(=O)O)cccc21 [ILY-V-24, 2,2′-(1,1′-(8,8′-(Octane-1,8-diylbis(sulfanediyl))bis(octane-8,1-diyl))bis(3-(2-amino-2-oxoacetyl)-2-methyl-1H-indole-4,1-diyl))bis(oxy)diacetic acid]
- IC50 [2]: 1050 nM
- IC50 [3]: 540 nM
- IC50 [4]: 800 nM
